One assay relates to H. influenzae 54A1100. Description: MIC determination, H. influenzae 54A1100. It is filed as cell-based, Haemophilus influenzae. As to conditions: Haemophilus influenzae. On the procedure: MIC Determinations. Streptococcus pneumoniae, S. pyogenes, E. faecalis, and H. influenzae MICs were determined using the broth microdilution procedure recommended by the NCCLS. Test trays were incubated at 35C without carbon dioxide. For testing of streptococci, the cation-adjusted Mueller-Hinton broth was supplemented with 2–3% lysed horse blood. For testing H. influenzae, freshly prepared Haemophilus Test Medium broth was used.
Bacterial Strains. • S. pneumoniae 02J1016, serotype 3, originally isolated from blood culture (strain P 4241) (MLS- and penicillin-susceptible). • S. pyogenes 02C0203, ATCC 12384, group A, type 3 (MLS-susceptible). • E. faecalis 03A1085, vancomycin susceptible clinically derived strain. • H. influenzae 54A1100, (43095 ATCC Fulghum strain) non-serotype B strain originally isolated from otitis media (macrolide and penicillin susceptible). • H. influenzae 54A1218, clinically derived non-serotype B strain (macrolide-susceptible, penicillin-resistant, TEM-1 beta-lactamase).

The subject of another assay is Mycoplasma pneumoniae. As to conditions: single oral 10 mg/kg dose; only one of several macrolides tested; cited from earlier work.
For a further assay, the system named is H. influenzae. Description: Susceptibility testing of trial H. influenzae isolates. It is filed as cell-based, Haemophilus influenzae. The following applies: NCCLS criteria. From the text:
Samples of middle ear fluid were split for storage at a central laboratory and cultured locally. All pathogens isolated locally were subcultured and sent to a central laboratory for confirmation and susceptibility testing, performed by Kirby-Bauer disk-diffusion or MIC testing according to NCCLS standards.
Cultures were taken for antimicrobial susceptibility testing and bacterial species were identified. Current NCCLS approved breakpoints for MICs and zone sizes were applied to all data irrespective of the breakpoint in use at the time of the study. The isolates from the clinical studies were sent to central laboratories for identification and susceptibility determination. The methods for agar diffusion disk tests are those recommended by NCCLS.
The susceptibility breakpoints for azithromycin were defined as follows: […]

The test system of assay [1] is Streptococcus pyogenes 02C0203. Description: Murine acute infection (peritonitis) model challenged with Streptococcus pyogenes. Format: in vivo, mouse.
Where [2] appears, read: oral QD, murine peritonitis model.

The structures appear in SMILES notation. In brackets after ≈: the same amount, converted by molar mass. Several values for one entry are separate records, joined by “and”; a condition that tells them apart may be missing. Equal values may be shown once. Read-outs that look alike come from different tables or passages of the source.

Regarding `CC[C@H]1OC(=O)[C@H](C)[C@@H](O[C@H]2C[C@@](C)(OC)[C@@H](O)[C@H](C)O2)[C@H](C)[C@@H](O[C@@H]2O[C@H](C)C[C@H](N(C)C)[C@H]2O)[C@](C)(O)C[C@@H](C)CN(C)[C@H](C)[C@@H](O)[C@]1(C)O` [Azithromycin, 9a-aza-9a-methyl-9-deoxo-9a-homoerythromycin A], the MIC against H. influenzae 54A1100 (54A1100, H. influenzae 54A1100) is 1.56 µg/mL (≈ 2.08 µM); in the assay on H. influenzae 54A1100 (H. influenzae 54A1100, read-out: MIC), 0.5 to 1 µg/mL (≈ 0.668 to 1.34 µM). Besides, the efficacy entry with Mycoplasma pneumoniae is on record as “efficacious”. Moreover, in the assay with H. influenzae, the “susceptibility of isolated H. influenzae to azithromycin” value is “susceptible”. Also, the results for the “Oral PD50” value in assay [1] (Dosing Regimen 1 day), in assay [1] (Dosing Regimen 2 days) and in assay [1] (Dosing Regimen 3 days) were 1.0 (0.6–1.4) mg/kg/day, 2.5 (1.8–3.3) mg/kg/day and 3.8 (3.8–3.9) mg/kg/day, respectively. The “Mice Surviving/Total” value in assay [1] (mouse, in vivo) was 1/10 and 10/10 and 8/10 and 3/10 and 0/10 and 9/10 and 7/10. Moreover, the “ED50 One-Day Therapy” value in assay [1] (setting [2]) is given as 0.78^1 mg/kg/therapy. Further, in assay [1] (setting [2]), the “ED50 Two-Day Therapy” value was 1.1 mg/kg/therapy.

These data come from US6987093B2 (priority 2001, dated 2006).
